Common to all, as to assay type: functional, cell-based
The test system of assay [1] is MDA-MB-435. As to the kind of experiment: Cytotoxicity against human MDA-MB-435 cells assessed as inhibition of cell growth incubated for 72 hrs by MTT assay. Particulars: MDA-MB-435, 72 h.
Assay [2] has as its system OVCAR-3. As to the kind of experiment: Cytotoxicity against human OVCAR-3 cells assessed as inhibition of cell growth incubated for 72 hrs by MTT assay. Particulars: OVCAR-3, 72 h.
Assay [3] deals with MDA-MB-231. As to the kind of experiment: Cytotoxicity against human MDA-MB-231 cells assessed as inhibition of cell growth incubated for 72 hrs by MTT assay. Particulars: MDA-MB-231, 72 h.

`CC1=C[C@]2(C)C(=C(C)[C@@H]3[C@@H]4C[C@H](C)C[C@H](C)[C@H]4[C@H]4Oc5ccc(cc5)C[C@@]5(O)C=C(C(=O)N5)C(=O)[C@H]2[C@@H]43)[C@@H]1C`: the results for the IC50 in assay [1], in assay [2] and in assay [3] were 1.5 µM, 1.6 µM and 0.4 µM, respectively.

On to `CC1=C[C@]2(C)C(=C(C)[C@@H]3[C@@H]4C[C@H](C)C[C@H](C)[C@H]4[C@H]4Oc5ccc(cc5)C[C@]5(O)NC(=O)[C@]6(O[C@H]65)C(=O)[C@H]2[C@@H]43)[C@@H]1C`, for which the IC50 in assay [1] was 17 µM; in assay [2] it was 21 µM; in assay [3], 4.8 µM.

Turning to `CC1=C[C@]2(C)C(=C(C)[C@@H]3[C@@H]4C[C@H](C)C[C@H](C)[C@H]4[C@H]4Oc5ccc(cc5)CC(=O)[C@@H]5O[C@@]5(C(N)=O)C(=O)[C@H]2[C@@H]43)[C@@H]1C`, the values for the IC50 in assay [1], in assay [2] and in assay [3] were 18 µM, 24 µM and 3.2 µM, respectively.

With `CC(=O)O[C@]12Cc3ccc(cc3)O[C@@H]3[C@H]4[C@@H](C[C@H](C)C[C@@H]4C)[C@H]4C(C)=C5[C@H](C)C(C)=C[C@@]5(C)[C@@H](C(=O)[C@@]5(O[C@H]51)C(=O)N2)[C@@H]34`, the IC50 in assay [1] is 20 µM; in assay [2] it was 20 µM; in assay [3] it was 4.4 µM.

With `CO[C@@H]1/C2=C(\O)[C@H]3[C@H]4[C@H](Oc5ccc(cc5)C[C@]1(O)NC2=O)[C@H]1[C@@H](C[C@H](C)C[C@@H]1C)[C@H]4C(C)=C1[C@H](C)C(C)=C[C@]13C`, the IC50 in assay [1] turned out to be 1.8 µM; in assay [2], 1 µM; in assay [3], 0.4 µM.

(Values after ChEMBL document CHEMBL5257048, “Embellicines C-E: Macrocyclic Alkaloids with a Cyclopenta[b]fluorene Ring System from the Fungus Sarocladium sp” (J Nat Prod, 2023).)
